Experimental data published in paper PMC11481179, “Development and Application of Reversible and Irreversible Covalent Probes for Human and Mouse Cathepsin‐K Activity Detection, Revealing Nuclear Activity” (Advanced Science, 2024).
pIC50, pKi: −log10 of the molar value.

Key:
CTSS = CTSS (Homo sapiens, UniProt P25774); assay: Recombinant cathepsin labeling by ABPs, in-gel fluorescence; type: binding; settings: increasing probe concentrations, 1 h
Method: The ABPs were tested for binding to recombinant CTSK compared to the closely related CTSB, CTSL, and CTSS, which are highly abundant and active in most biological samples. Using the in‐gel fluorescent analysis that detects the stable enzyme‐probe complex, active CTSK was labeled with each of the four probes, and significant selectivity was found in three probes GD32, GD37, and GD42 (Figure 1a). […] However, the minimum amount of active CTSK the remaining probes detected was much higher, ranging from 8 to 70 ngs, (Figure 1b).
Figure 1 In vitro evaluation of CTSK targeted compounds. a) Labeling of recombinant cathepsins by ABPs. Recombinant cathepsins were treated with increasing concentrations of ABPs for 1 h. Samples were separated by SDS‐PAGE and scanned for fluorescence by a Typhoon scanner at 635/670 nm. All probes show dose‐dependent binding to the CTSK, and have lower affinity to CTSS except GD36, b) CTSK [0.5–280 ng] was labeled with the indicated ABPs [5 µM]. Incubations were performed for 1 h at 37 °C, at pH 5.5. Samples were analyzed as described in (a). c) Recombinant cathepsins B, K, L, and S [0.5 µM] were first treated with the indicated concentrations of the inhibitor GD30 or vehicle for 1 h followed by incubation with a pan cathepsin probe GB123 [1 µM] for 1 h. Samples were analyzed as described in (a). d) Quantitative analysis of CTSK inhibition by GD30 presented in (d), data represent mean values ± standard error, n = 3. e) IC50 plot of GD30 inhibition of CTSK activity. […]
emission wavelengths of 370 and 460 nm, respectively. Cathepsin concentrations in the assay were 0.4 nM (CTSK) or 5 nM (CTSS, CTSB, and CTSL). […] For irreversible inhibitors, reaction data were fitted to the one-phase association formula in GraphPad Prism 9 software: Y=Y0 + (Plateau-Y0)*(1-exp(-K*X)) where in this case Y0 and Y represent fluorescence signal at times 0 and t, respectively, K represent the observed reaction rate kobs and X the inhibitor concentration. […]
reaction was stopped and samples were analyzed as described above. […]

CTSK = target: T1, CTSK (Homo sapiens, UniProt P43235); assay: In vitro kinetic evaluation of cathepsin inhibition, fluorescent substrate Z-FR-AMC; type: biochemical; settings: for mode of inhibition: CTSK
T1 sequence (P43235 115-329): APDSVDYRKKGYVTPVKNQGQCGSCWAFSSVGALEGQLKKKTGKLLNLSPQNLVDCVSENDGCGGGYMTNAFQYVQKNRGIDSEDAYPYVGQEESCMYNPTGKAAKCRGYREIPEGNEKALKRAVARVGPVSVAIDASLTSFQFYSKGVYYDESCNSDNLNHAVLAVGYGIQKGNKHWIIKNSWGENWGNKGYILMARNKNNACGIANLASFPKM
Source text: used for TLC. Phosphate Buffer Saline (PBS) was purchased from Biological Industries (pH = […]
7.4) and was used as a buffer system in all experiments if not indicated otherwise. […]
Recombinant human CTSB, CTSK, CTSL, and CTSS were supplied by B. Turk (J.
Stefan Institute).[1] […]
Fluorescent gels were scanned by a Typhoon FLA 9500 flatbed laser scanner (GE Healthcare […]
Bio-Sciences AB, Uppsala, Sweden). BioRad ChemiDox XRS+ was used for western blot […]
analysis. Olympus FV10i inverted microscope (Tokyo,Japan) with Fluoview software or Zeiss […]
Confocal LSM 980 with Airyscan (Germany) with Zen software were used for confocal […]
In vitro kinetic evaluation of labeling recombinant cathepsins:
Reactions were monitored for 30 min at 37° C in 96-well black flat-bottom microplates […]
(Greiner, Germany) using Tecan […] M1000 pro plate reader (Tecan, Switzerland), […]
substrates Z-RR-AMC (CTSL) or Z-FR-AMC (CTSS, CTSB and CTSK), and excitation and […]
emission wavelengths of 370 and 460 nm, respectively. Cathepsin concentrations in the assay were 0.4 nM (CTSK) or 5 nM (CTSS, CTSB, and CTSL). The buffer was 100 mM Na2HPO4/NaH2PO4, 50 mM NaCl, 5 mM DTT, 0,1% Peg-6000, pH 6. For irreversible inhibitors, reaction data were fitted to the one-phase association formula in GraphPad Prism 9 software: Y=Y0 + (Plateau-Y0)*(1-exp(-K*X)) where in this case Y0 and Y represent fluorescence signal at times 0 and t, respectively, K represent the observed reaction rate kobs and X the inhibitor concentration. Inactivation rates at each inhibitor concentration were […]
maximal rate of inactivation (kinact) was obtained as the asymptote from equation […]
for each X, and Kiapp is the apparent inhibition constant. Ki values were calculated from IC50 or from Kiapp using formulas Ki = Kiapp / (1 + Km/S) and IC50 = E0/2 + Kiapp, where Km stands for Michalis-Menten constant, S for substrate concentration and E0 for cathepsin concentration.
The highest inhibitor concentrations in the assay were 50 µM. Measurements were performed in several independent duplicates. Average values are presented with standard deviations. […]

Sequence of CTSS (P25774 115-331): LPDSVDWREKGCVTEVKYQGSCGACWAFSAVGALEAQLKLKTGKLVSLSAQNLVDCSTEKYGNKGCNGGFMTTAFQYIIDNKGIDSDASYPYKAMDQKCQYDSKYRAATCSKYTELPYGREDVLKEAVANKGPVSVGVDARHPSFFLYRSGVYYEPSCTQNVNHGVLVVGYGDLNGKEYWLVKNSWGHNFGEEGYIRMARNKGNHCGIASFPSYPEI

| Structure (SMILES) | labeling of CTSS relative to CTSK (CTSS) | mode of inhibition (CTSK) | pKi (CTSK; CTSK 0.4 nM, pH 6, 37 °C) | kinact (CTSK; CTSK 0.4 nM, pH 6, 37 °C) [s⁻¹] | kinact/Ki (CTSK; CTSK 0.4 nM, pH 6, 37 °C) | pIC50 (CTSK; CTSK 0.4 nM, tight binding) |
| --- | --- | --- | --- | --- | --- | --- |
| C#CCNC(=O)[C@H](CC(C)C)N[C@@H](c1ccc(-c2ccc(S(=O)(=O)CCNC(=O)CCCCC[N+]3=C(/C=C/C=C/C=C4/N(C)c5ccc(S(=O)(=O)O)cc5C4(C)C)C(C)(C)c4cc(S(=O)(=O)O)ccc43)cc2)cc1)C(F)(F)F [GD32] | only labeled CTSS at higher concentrations | Irreversible | 8.44 | 0.0007 ± 0.0001 | 26 ± 14 × 10^4 M^−1sec^−1 | – |
| CC(C)C[C@H](N[C@@H](c1ccc(-c2ccc(S(=O)(=O)CCNC(=O)CCCCC[N+]3=C(/C=C/C=C/C=C4/N(C)c5ccc(S(=O)(=O)O)cc5C4(C)C)C(C)(C)c4cc(S(=O)(=O)O)ccc43)cc2)cc1)C(F)(F)F)C(=O)NC1(C#N)CC1 [GD37] | only labeled CTSS at higher concentrations | Reversible [Tight binding] | – | – | – | 9.40 |
